From US5173405A, “Use of arsenite to reversibly block steroid binding to glucocorticoid receptors in the presence of other steroid receptors” (priority 1990, dated 1992)

What was measured:
[1] = tested on: steroid-free glucocorticoid receptors; assay: Reversal by thiols of arsenite inhibition of [3H]Dex binding to steroid-free receptors; conditions: receptors preincubated with 40 uM arsenite 30 min, then thiol 30 min
Description: Referring to FIG. 4, steroid-free receptors in pH 8.8 TAPS buffer containing 21 mM Na2 MoO4 were preincubated with 40 uM arsenite for 30 min and then adjusted to various concentrations of DTT or β-MERC by addition of 100× solutions of each thiol in pH 8.8 TAPS buffer. After a further 30 min preincubation, the binding activity of these receptors was assayed by incubating with [^3 H]Dex±excess [^1 H]Dex for 2.5 hr. The amount of specific binding (determined as described above for FIG. 1A) of [^3 H]Dex after DTT(o) and β-MERC preincubation was expressed as a percent of the untreated control.
(§1) The growth of HTC cells at 37° C. in spinner and monolayer cultures of Swim's S77 medium (GIBCO; Grand Island, N.Y.) supplemented with 5% fetal and 5% newborn bovine serum (both obtained from Biofluids; Rockville, Md.) and 0.03% glutamine are described in Thompson, 1979. HTC cell cytosol containing the steroid-free receptors was prepared, stored in liquid N2, and labelled as set forth in Reichman et al., Biochem., 23, 5376-5384, 1984; Simons et al., Biochem., 23, 6876-6882, 1984. […] The specifically bound [^3 H]Dex was determined by first adding a 10% dextran-coated charcoal solution (added volume=20% of reaction solution volume) to remove free steroid and then subtracting the nonspecific binding seen in the presence of excess [^1 H]Dex.

[2] = biological target: T1, glucocorticoid receptors (HTC cell receptors) (Rattus norvegicus, UniProt P06536); assay: [3H]Dex binding to HTC cell cytosol receptors after preincubation with MMTS or arsenite; conditions: for inactivation of steroid-binding activity of glucocorticoid receptors: low concentrations of MMTS, very low concentrations of arsenite
T1 sequence (P06536 1-795): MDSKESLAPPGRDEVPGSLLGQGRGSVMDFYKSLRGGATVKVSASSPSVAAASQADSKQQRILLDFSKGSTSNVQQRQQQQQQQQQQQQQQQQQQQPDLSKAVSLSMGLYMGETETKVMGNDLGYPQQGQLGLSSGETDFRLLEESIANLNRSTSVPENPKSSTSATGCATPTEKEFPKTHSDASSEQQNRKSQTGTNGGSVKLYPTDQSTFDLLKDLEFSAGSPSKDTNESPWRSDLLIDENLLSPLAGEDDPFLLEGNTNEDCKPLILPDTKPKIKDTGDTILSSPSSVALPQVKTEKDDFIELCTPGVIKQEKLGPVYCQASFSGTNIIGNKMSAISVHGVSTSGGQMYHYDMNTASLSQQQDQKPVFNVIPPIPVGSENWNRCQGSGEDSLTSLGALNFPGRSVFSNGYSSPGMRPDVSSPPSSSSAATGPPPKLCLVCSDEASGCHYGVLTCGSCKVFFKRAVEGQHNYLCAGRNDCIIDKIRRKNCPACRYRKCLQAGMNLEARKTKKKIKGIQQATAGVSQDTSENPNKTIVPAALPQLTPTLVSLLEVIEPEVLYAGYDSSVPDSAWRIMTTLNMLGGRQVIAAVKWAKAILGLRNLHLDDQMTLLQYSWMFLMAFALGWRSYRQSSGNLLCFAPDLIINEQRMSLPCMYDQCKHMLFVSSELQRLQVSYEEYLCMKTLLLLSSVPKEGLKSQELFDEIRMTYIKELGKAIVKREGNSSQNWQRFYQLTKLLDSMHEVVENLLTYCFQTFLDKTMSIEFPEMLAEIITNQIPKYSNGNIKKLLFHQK
Description: Referring to FIG. 1A, duplicate samples of HTC cell (Thompson, E.B., Methods Enzymol., 58, 544-551 [1979]) cytosol solution were pretreated with various concentrations of MMTS in absolute EtOH (final concentration of ETOH=1%) for 0 hr (.smallcircle.), 0.5 hr, or 2.5 hr before the addition of [^3 H]Dex±[^1 H]Dex. After a further 2.5 hr incubation, the free steroid was removed by the addition of dextran-coatedcharcoal. The specific binding to receptors was determined as described by Miller and Simons, J. Biol. Chem., 263, 15217-15225, 1988) (see also section entitled "Cells and preparation and labelling of receptors" below) and plotted as percentage of the EtOH-pretreated control versus the concentration of MMTS. The data points shown are the average values derived from 1-5 experiments.
Referring to FIG. 1B, duplicate samples of HTC cell cytosol solution were treated with various concentrations of MMTS for 2.5 hr before determining the remaining steroid binding activity of the receptors as described above for FIG. 1A.
Referring to FIG. 3, steroid-free receptors containing 21 mM Na2 MoO4 were incubated with various concentrations of 100× (in pH 8.8 TAPS buffer) arsenite for 30 min. The binding activity of these receptors was then assayed by incubating with [^3 H]Dex±excess [^1 H]Dex for 2.5 hr. The amount of specific binding of [^3 H]Dex (determined as described above for FIG. 1A) after arsenite preincubation was expressed as a percent of the untreated control.
as §1, with “1979.” for “1979. HTC cell cytosol containing the steroid-free receptors was prepared, stored in liquid N2, and labelled as set forth in Reichman et al., Biochem., 23, 5376-5384, 1984; Simons et al., Biochem., 23, 6876-6882, 1984.”

[3] = tested on: 16 kDa steroid-binding core fragment of HTC cell receptors; assay: [3H]Dex binding to trypsin-generated 16 kDa core fragment after preincubation with arsenite or MMTS; parameters: species or system rat; conditions: preincubation with arsenite 30 min or MMTS 2.5 hr
Description: Referring to FIG. 6, duplicate samples of steroid-free receptors in pH 8.8 TAPS buffer containing 21 mM Na2 MoO4 were digested with trypsin (14 μg/ml for 1 hr), to generate the 16 kDa core fragment of the receptor, followed by a 10-fold (wt/wt) excess of soybean trypsin inhibitor to block further digestion. The samples were then treated with various concentrations of arsenite (for 30 min) or MMTS (for 2.5 hr) before determining the remaining [^3 H]Dex binding as described above for FIG. 1A.
as §1

[4] = tested on: human glucocorticoid receptors; assay: [3H]steroid binding of glucocorticoid receptors in MCF-7 cell cytosol after arsenite preincubation; conditions: arsenite between 100 and 500 μM
Description: (§2) Referring to FIG. 7, steroid-free receptors (glucocorticoid, estrogen, and progesterone receptors in MCF-7 cell [from NCI, NIH] cytosol in pH 7.5 HEPES buffer containing 21 mM Na2 MoO4) were treated with various concentrations of 100× (in pH 7.5 HEPES buffer) sodium arsenite for 30 min. The binding activity of these receptors was then assayed by incubating with [^3 H]steroid±[^1 H]steroid for 2.5 hr. The amount of specific binding of [^3 H]steroid (as described above for FIG. 1A) after arsenite preincubation was expressed as the percent of the untreated control for glucocorticoid estrogen (Δ), and progesterone (.smallcircle.) receptors.
(§3) MCF-7 cells (obtained from NIH) were grown as monolayer cultures in Richter's IMEM (NIH Media Unit, NIH) (supplemented with 10% fetal bovine serum [Biofluids] and 0.03% glutamine) in an atmosphere of 5% CO2 /95% air at 37° C. Crude receptor solutions were prepared by freeze-thaw lysis (in liquid N2) of cells washed in phosphate buffered saline (Reichman et al., 1984; Simons et al., 1984). The cell lysates were treated with either […] TAPS or pH 7.5 HEPES buffer (containing 20 mM Na2 MoO4) and centrifuged at 2500×g for 10 min or 100,000×g for 60 min. […]

[5] = tested on: human estrogen and progesterone receptors (other receptors); assay: [3H]steroid binding of estrogen and progesterone receptors in MCF-7 cell cytosol after arsenite preincubation; conditions: arsenite between 100 and 500 μM
Description: as §2, §3

O[C@H](CS)[C@H](O)CS (racemic) [DTT, dithiothreitol]
reversal of arsenite inhibition of steroid binding [1]: reversal of arsenite inhibition of steroid binding

CSS(C)(=O)=O [MMTS, methyl methanethiolsulfonate]
inactivation of steroid-binding activity of glucocorticoid receptors [2]: specifically and reversibly inactivate all of the steroid-binding activity of glucocorticoid receptors | preferred MMTS concentration for blocking rat glucocorticoid receptors ([2]; rat glucocorticoid receptors): approximately 300 μM | inhibition of [3H]Dex binding to 16 kDa steroid-binding core fragment [3]: inhibition of [^3 H]Dex binding

OCCS [β-MERC, β-mercaptoethanol]
reversal of arsenite inhibition of steroid binding [1]: reversal of arsenite inhibition of steroid binding

O=[As]O [arsenite, sodium arsenite]
inactivation of steroid-binding activity of glucocorticoid receptors [2]: specifically and reversibly inactivate all of the steroid-binding activity of glucocorticoid receptors | inhibition of glucocorticoid binding [4]: complete inhibition of glucocorticoid binding | effect on other receptors [5]: little effect on other receptors | inhibition of [3H]Dex binding to 16 kDa steroid-binding core fragment [3]: inhibition of [^3 H]Dex binding
